# Key:
# [1] = system: Alternaria brassicae; experiment: In vivo test on Alternaria brassicae (leaf spot of crucifers), radish plants, preventive spray; details: for pest or weed control at 330 ppm: Alternaria brassicae, radish plants (Pernot), treated 24 h before contamination, grading 6 to 7 days after contamination vs control plants, read-out: protection (good, at least 50%, to total); for effectiveness on Alternaria brassicae: 330 ppm, comparison compounds of WO 01/11965
# Protocol: (§1) The active ingredient tested is prepared by potter homogenisation in a concentrated suspension type formulation at 100 g/l. This suspension is then diluted with water to obtain the desired active material concentration.
# Radish plants (Pernot variety) in starter cups, sown on a 50/50 peat soil-pozzolana substrate and grown at 18-20° C., are treated at the cotyledon stage by spraying with the aqueous suspension described above.
# Plants, used as controls, are treated with an aqueous solution not containing the active material.
# After 24 hours, the plants are contaminated by spraying them with an aqueous suspension of Alternaria brassicae spores (40,000 spores per cm^3). The spores are collected from a 12-13-day-old culture.
# The contaminated radish plants are incubated for 6-7 days at about 18° C., under a humid atmosphere.
# Grading is carried out 6 to 7 days after the contamination, in comparison with the control plants.
# [2] = system: Pyrenophora teres; experiment: In vivo test on Pyrenophora teres (barley net blotch), barley plants, preventive spray; details: 288 h, barley plants (Express), treated 24 h before contamination, grading 12 days after contamination vs control plants, read-out: protection (good, at least 50%, to total)
# Protocol: as §1
# (§2) Barley plants (Express variety) in starter cups, sown on a 50/50 peat soil-pozzolana substrate and grown at 12° C., are treated at the 1-leaf stage (10 cm tall) by spraying with the aqueous suspension described above. Plants, used as controls, are treated with an aqueous solution not containing the active material.
# After 24 hours, the plants are contaminated by spraying them with an aqueous suspension of Pyrenophora teres spores (12,000 spores per ml). The spores are collected from a 12-day-old culture. The contaminated barley plants are incubated for 24 hours at about 20° C. and at 100% relative humidity, and then for 12 days at 80% relative humidity.
# Grading is carried out 12 days after the contamination, in comparison with the control plants.
# [3] = system: Botrytis cinerea; experiment: In vivo test on Botrytis cinerea (gherkin grey mould), gherkin plants, preventive spray; details: 330 ppm; comparison compounds of WO 01/11965
# Protocol: as §1
# as §2, with “Gherkin” for “Barley”, “(Petit Vert de Paris” for “(Express”, “18-20°” for “12°”, “cotyledon Z11” for “1-leaf”, “stage” for “stage (10 cm tall)”
# After 24 hours, the plants are contaminated by depositing drops of an aqueous suspension of Botrytis cinerea spores (150,000 spores per ml) on upper surface of the leaves. The spores are collected from a 15-day-old culture and are suspended in a nutrient solution composed of: • 20 g/L of gelatin • 50 g/L of cane sugar • 2 g/L of NH4NO3 • 1 g/L of KH2PO4
# The contaminated gherkin plants are settled for 5/7 days in a climatic room at 15-11° C. (day/night) and at 80% relative humidity.
# Grading is carried out 5/7 days after the contamination, in comparison with the control plants. Under these conditions, good (at least 50%) or total protection is observed at a dose of 330 ppm with the following compounds: 38 and 57.
SMILES,pest or weed control at 330 ppm [1] [%],pest or weed control at 330 ppm [2] [%],effectiveness on Botrytis cinerea [3],effectiveness on Alternaria brassicae [1]
CC(CNC(=O)c1cc(Cl)ccc1Cl)c1ncc(C(F)(F)F)cc1Cl (stereo not drawn) [Compound 3],≥ 50,–,–,–
COc1ccccc1C(=O)NCC(C)c1ncc(C(F)(F)F)cc1Cl (stereo not drawn) [Compound 4],≥ 50,–,–,–
Cc1ccccc1C(=O)NCC(C)c1ncc(C(F)(F)F)cc1Cl (stereo not drawn) [Compound 7],≥ 50,≥ 50,–,–
Cc1cccc(C(=O)NCC(C)c2ncc(C(F)(F)F)cc2Cl)c1C (stereo not drawn) [Compound 8],≥ 50,≥ 50,–,–
Cc1ccc(C(=O)NCC(C)c2ncc(C(F)(F)F)cc2Cl)c(C)c1 (stereo not drawn) [Compound 9],≥ 50,≥ 50,–,–
Cc1ccc(C)c(C(=O)NCC(C)c2ncc(C(F)(F)F)cc2Cl)c1 (stereo not drawn) [Compound 10],≥ 50,≥ 50,–,–
CC(CNC(=O)c1cccc(Cl)c1F)c1ncc(C(F)(F)F)cc1Cl (stereo not drawn) [Compound 11],≥ 50,–,–,–
Cc1c(Cl)cccc1C(=O)NCC(C)c1ncc(C(F)(F)F)cc1Cl (stereo not drawn) [Compound 12],≥ 50,–,–,–
Cc1c(F)cccc1C(=O)NCC(C)c1ncc(C(F)(F)F)cc1Cl (stereo not drawn) [Compound 13],≥ 50,≥ 50,–,–
Cc1c(O)cccc1C(=O)NCC(C)c1ncc(C(F)(F)F)cc1Cl (stereo not drawn) [Compound 15],≥ 50,–,–,–
CCC(CNC(=O)c1cccc(OC)c1OC)c1ncc(C(F)(F)F)cc1Cl (stereo not drawn) [Compound 21],≥ 50,–,–,–
CCC(CNC(=O)c1ccccc1C)c1ncc(C(F)(F)F)cc1Cl (stereo not drawn) [Compound 23],≥ 50,–,–,–
CCC(CNC(=O)c1ccc(C)cc1C)c1ncc(C(F)(F)F)cc1Cl (stereo not drawn) [Compound 25],≥ 50,–,–,–
CCC(CNC(=O)c1cccc(O)c1C)c1ncc(C(F)(F)F)cc1Cl (stereo not drawn) [Compound 30],–,≥ 50,–,–
CC(CNC(=O)c1ccccc1C(F)(F)F)c1ncc(C(F)(F)F)cc1Cl (stereo not drawn) [Compound 32],≥ 50,≥ 50,–,–
CC(C)(CNC(=O)c1ccccc1C(F)(F)F)c1ncc(C(F)(F)F)cc1Cl [Compound 33],≥ 50,≥ 50,–,–
CCCC(CCC)(CNC(=O)c1ccccc1C(F)(F)F)c1ncc(C(F)(F)F)cc1Cl [Compound 35],≥ 50,–,–,–
CCCC(CCC)(CNC(=O)c1ccccc1I)c1ncc(C(F)(F)F)cc1Cl [Compound 36],≥ 50,–,–,–
CC(Cc1ncc(C(F)(F)F)cc1Cl)NC(=O)c1ccccc1C(F)(F)F (stereo not drawn) [Compound 38],≥ 50,≥ 50,–,–
"CCC(CNC(=O)c1ccccc1C(F)(F)F)c1ncc(C(F)(F)F)cc1Cl (stereo not drawn) [Compound 39, N-{2-[3-chloro-5-(trifluoromethyl)-2-Pyridinyl]butyl}-2-(trifluoromethyl)benzamide]",–,≥ 50,–,–
CCC(CNC(=O)c1ccccc1Br)c1ncc(C(F)(F)F)cc1Cl (stereo not drawn) [Compound 40],–,≥ 50,–,–

SMILES,pest or weed control at 330 ppm [1] [%],pest or weed control at 330 ppm [2] [%],effectiveness on Botrytis cinerea [3],effectiveness on Alternaria brassicae [1]
CCC(CNC(=O)c1ccccc1C(F)F)c1ncc(C(F)(F)F)cc1Cl (stereo not drawn) [Compound 41],–,≥ 50,–,–
CCCC(CNC(=O)c1ccccc1C(F)(F)F)c1ncc(C(F)(F)F)cc1Cl (stereo not drawn) [Compound 42],≥ 50,–,–,–
CCCC(CNC(=O)c1ccccc1Br)c1ncc(C(F)(F)F)cc1Cl (stereo not drawn) [Compound 43],≥ 50,≥ 50,–,–
CCCC(CNC(=O)c1ccccc1C(F)F)c1ncc(C(F)(F)F)cc1Cl (stereo not drawn) [Compound 44],–,≥ 50,–,–
"CCC(Cc1ncc(C(F)(F)F)cc1Cl)NC(=O)c1ccccc1C(F)(F)F (stereo not drawn) [Compound 47, N-(1-{[3-chloro-5-(trifluoromethyl)-2-Pyridinyl]methyl}propyl)-2-(trifluoromethyl)benzamide]",≥ 50,≥ 50,–,–
CC(NC(=O)c1ccccc1C(F)(F)F)C(C)c1ncc(C(F)(F)F)cc1Cl (stereo not drawn) [Compound 58],≥ 50,≥ 50,–,–
CC(NC(=O)c1ccccc1I)C(C)c1ncc(C(F)(F)F)cc1Cl (stereo not drawn) [Compound 59],≥ 50,≥ 50,–,–
CC(Cc1ccc(C(F)(F)F)c(Cl)n1)NC(=O)c1ccccc1C(F)(F)F (stereo not drawn) [Compound 61],–,≥ 50,–,–
CC(CNC(=O)c1ccccc1C(F)(F)F)c1ccc(C(F)(F)F)c(Cl)n1 (stereo not drawn) [Compound 62],≥ 50,≥ 50,–,–
CC(CNC(=O)c1ccccc1I)c1ccc(C(F)(F)F)c(Cl)n1 (stereo not drawn) [Compound 63],≥ 50,≥ 50,–,–
CC(CNC(=O)c1ccccc1Br)c1ccc(C(F)(F)F)c(Cl)n1 (stereo not drawn) [Compound 64],≥ 50,≥ 50,–,–
CC(CNC(=O)c1ccccc1C(F)(F)F)c1ccc(C(F)(F)F)cn1 (stereo not drawn) [Compound 66],≥ 50,≥ 50,–,–
CC(CNC(=O)c1ccccc1I)c1ccc(C(F)(F)F)cn1 (stereo not drawn) [Compound 67],≥ 50,≥ 50,–,–
"CCNC(=O)C(Cc1ncc(C(F)(F)F)cc1Cl)NC(=O)c1ccccc1 (stereo not drawn) [compound 304, N-{1-ethylcarbamoyl-2-[3-chloro-5-(trifluoromethyl)-2-pyridinyl]-ethyl}-benzamide]",–,–,zero,–
"CCNC(=O)C(Cc1ncc(C(F)(F)F)cc1Cl)NC(=O)c1ccc(Cl)cc1 (stereo not drawn) [compound 306, N-{1-ethylcarbamoyl-2-[3-chloro-5-(trifluoromethyl)-2-pyridinyl]ethyl}-4-chlorobenzamide]",–,–,zero,–
"CCNC(=O)C(Cc1ncc(C(F)(F)F)cc1Cl)NC(=O)c1cccc([N+](=O)[O-])c1 (stereo not drawn) [compound 307, N-{1-ethylcarbamoyl-2-[3-chloro-5-(trifluoromethyl)-2-pyridinyl]ethyl}-3-nitrobenzamide, reference compound]",–,–,zero,poor
"CCNC(=O)C(Cc1ncc(C(F)(F)F)cc1Cl)NC(=O)c1ccccc1Br (stereo not drawn) [compound 310, N-{1-ethylcarbamoyl-2-[3-chloro-5-(trifluoromethyl)-2-pyridinyl]ethyl}-2-bromobenzamide]",–,–,zero,–
"CNC(=O)C(Cc1ncc(C(F)(F)F)cc1Cl)NC(=O)c1ccccc1 (stereo not drawn) [compound 314, N-{1-methylcarbamoyl-2-[3-chloro-5-(trifluoromethyl)-2-pyridinyl]ethyl}-benzamide]",–,–,zero,–
"CNC(=O)C(Cc1ncc(C(F)(F)F)cc1Cl)NC(=O)c1ccc(OC)cc1 (stereo not drawn) [compound 315, N-{1-methylcarbamoyl-2-[3-chloro-5-(trifluoromethyl)-2-pyridinyl]ethyl}-4-methoxybenzamide]",–,–,zero,–
"CNC(=O)C(Cc1ncc(C(F)(F)F)cc1Cl)NC(=O)c1ccc(-c2ccccc2)cc1 (stereo not drawn) [compound 316, N-{1-methylcarbamoyl-2-[3-chloro-5-(trifluoromethyl)-2-pyridinyl]-ethyl}-4-phenylbenzamide, reference compound]",–,–,zero,poor

# From patent US7560567B2, “2-pyridinylethylbenzamide derivatives” (Bayer Cropscience S.A., priority 2003, dated 2009)
